# Source: patent US4596820A, “1,7-diphenyl-3-methylaza-7-cyano-8-methylnonane for use in the treatment of diseases” (priority 1983, dated 1986)
# Legend:
# [1] = in vivo
# [2] = test system: hypoxic reduction in the level of creatine phosphate, adenosine triphosphate and glycogen in the heart muscle; experiment: animal or person; type: in vivo, rat (male Wistar); conditions: for Relative activity: relative to (±) A = 1; for ED 50% (pretreatment dose which increases the ATP level by 50% compared with the hypoxic control group): 360 min
# Protocol: Male Wistar rats weighing 250-300 g were anesthetized intraperitoneally with thiobutabarbital (100 mg/kg of body weight) and then subjected to standardized ventilation with an oxygen-deficient mixture (2% of O2 and 98% of N2) for 7 minutes. Using the freeze-stop technique, the apex of the heart was removed, mechanically comminuted and then digested with the addition of 0.6N perchloric acid. After centrifuging, creatine phosphate (according to Bergmeyer, H. U., Methoden der enzymatischen Analyse, Verlag Chemie, Weinheim, 2, (1974), 1825), adenosine triphosphate (according to Biochem. Biophys. Acta (Amst.) 1 (1947), 292) and glycogen (according to Biochem. J. 56 (1954), 1825) were determined in the supernatant liquid.
# The test substances were administered to the conscious animals at various times before they were anesthetized and before the subsequent ventilation with an oxygen-deficient mixture. The percentage difference in the myocardial concentrations of adenosine triphosphate (ATP), creatine phosphate (CP) and glycogen in animals pretreated with the test substance compared with untreated hypoxic control animals was determined.
# The ED 50% is the pretreatment dose of test substance which
# increases the ATP level by 50% compared with the hypoxic
# [3] = test system: blood pressure and heart rate; experiment: Blood pressure and heart rate of conscious spontaneously hypertensive rats; type: in vivo; conditions: 20 mg/kg oral
# AV conduction = experiment: Effect on AV conduction in the dog; type: in vivo
# Protocol: The effect on the AV conduction was tested on a species suitable for this purpose, ie. the dog.
# [4] = Overall findings (oral availability, duration of action, toleration); conditions: in vivo
# cerebral hypoxia = experiment: Tolerance of the mouse to hypoxia (survival of oxygen-deficient ventilation); type: in vivo, mouse (female NMRI Ivanovas); conditions: for Effect on number of animals surviving hypoxia after 3 minutes: 96.5% N2 and 3.5% O2, dose-dependent for A and its antipodes; for ED 50% (dose at which 50% of the animals survived oxygen-deficient ventilation for 3 minutes): 60 min
# Protocol: To test for tolerance to hypoxia, female mice (NMRI Ivanovas, weight 24-26 g) were introduced individually into glass tubes through which a gas mixture consisting of 96.5% of N2 and 3.5% of O2 flowed via a rotameter, at a rate of 4 liters/min. The time from the beginning of passage of the gas mixture until death occurred was measured.
# Tolerance of the mouse to hypoxia, test carried out 1 hour
# after oral administration of the test substances.
# ED 50% means that, at the stated dose, 50% of the animals
# survived oxygen-deficient ventilation for 3 minutes.
# [5] = test system: PQ interval and myocardial contractility; experiment: PQ interval and myocardial contractility in anesthetized pigs; type: in vivo, pig; conditions: 0.2 mg/kg intravenously
# [6] = test system: heart and the circulation; conditions: similar doses; cited from earlier work
# [7] = 5 mg/kg oral, 6 hours after administration, vs untreated hypoxic controls
# [8] = 10 mg/kg oral, 6 hours after administration, vs untreated hypoxic controls
# [9] = 20 mg/kg oral, 2 hours after administration
# [10] = 20 mg/kg oral, 6 hours after administration (Table 2)
# [11] = 20 mg/kg oral, 6 hours after administration (Table 3, comparison with verapamil)
# [12] = 20 mg/kg oral, 6 hours after administration, vs untreated hypoxic controls (Table 1)
# [13] = 20 mg/kg oral, 12 hours after administration
# [14] = 20 mg/kg oral, 18 hours after administration
# [15] = 20 mg/kg oral, 24 hours after administration
# [16] = rat, 6 hours after oral administration
# [17] = mouse, 1 hour after oral administration
# [18] = 40 mg/kg oral, 6 hours after administration
# [19] = 80 mg/kg oral, 6 hours after administration
compound,measurement,setting,value
"CC(C)C(C#N)(CCCN(C)CCc1ccccc1)c1ccccc1 (racemic) [A, 1,7-diphenyl-3-methylaza-7-cyano-8-methylnonane]",Reduction in the blood pressure,[1],does not result in a reduction in the blood pressure
same,Toleration,[1],particularly well tolerated
same,"Inhibition of the hypoxic reduction in CP, ATP and glycogen in the heart muscle",[2]; 5 mg/kg oral (lowest dose tested),"substantially inhibits the hypoxic reduction in the level of creatine phosphate, adenosine triphosphate and glycogen in the heart muscle"
same,Percentage difference in the amount of ATP,[2]; [7],24%
same,Percentage difference in the amount of CP,[2]; [7],29%
same,Percentage difference in the amount of Glycogen,[2]; [7],10%
same,Percentage difference in the amount of ATP,[2]; [8],37%
same,Percentage difference in the amount of CP,[2]; [8],47%
same,Percentage difference in the amount of Glycogen,[2]; [8],27%
same,Percentage difference in the amount of ATP,[2]; [9],31%
same,Percentage difference in the amount of CP,[2]; [9],41%
same,Percentage difference in the amount of Glycogen,[2]; [9],-1%
same,Percentage difference in the amount of ATP,[2]; [10],63%
same,Percentage difference in the amount of CP,[2]; [10],80%
same,Percentage difference in the amount of Glycogen,[2]; [10],50%
same,Percentage difference in the amount of ATP,[2]; [11],63%
same,Percentage difference in the amount of CP,[2]; [11],80%
same,Percentage difference in the amount of Glycogen,[2]; [11],50%
same,Percentage difference in the amount of ATP,[2]; [12],63%
same,Percentage difference in the amount of CP,[2]; [12],80%
same,Percentage difference in the amount of Glycogen,[2]; [12],50%
same,Percentage difference in the amount of ATP,[2]; [13],42%
same,Percentage difference in the amount of CP,[2]; [13],42%
same,Percentage difference in the amount of Glycogen,[2]; [13],19%
same,Percentage difference in the amount of ATP,[2]; [14],40%
same,Percentage difference in the amount of CP,[2]; [14],32%
same,Percentage difference in the amount of Glycogen,[2]; [14],16%
same,Percentage difference in the amount of ATP,[2]; [15],11%
same,Percentage difference in the amount of CP,[2]; [15],22%
same,Percentage difference in the amount of Glycogen,[2]; [15],26%
same,Cardioprotective effect at the dose,"[2]; 20 mg/kg oral, rat",maximum cardioprotective effect
same,Onset of protective effect,"[2]; 20 mg/kg oral, CP and ATP",clearly detectable for the parameters CP and ATP as soon as 2 hours after administration
same,Duration of protective effect,"[2]; 20 mg/kg, CP and ATP",up to 24 hours
same,Cardioprotective action compared with verapamil,[2]; 6 hours after oral administration,substantially superior to that of verapamil
same,ED50,"[2]; Rattus norvegicus, po, 6 h, rat, 6 hours after oral administration, read-out: ED 50% (pretreatment dose which increases the ATP level by 50% compared with the hypoxic control group)",13.6 mg/kg
same,Dose dependence of protective effect,"[2]; oral, rat",An increase in dose results in a greater protective effect
same,Relative activity,[2]; [16],1
same,Toleration of the dose,"[2]; rat, in vivo",well tolerated
same,"Blood pressure, Change in %",[3]; 6 hours after administration,-5%
same,"Heart rate, Change in %",[3]; 6 hours after administration,-5%
same,"Blood pressure, 6 hours after administration of the substance",[3]; initial value 229,217
same,"Heart rate, 6 hours after administration of the substance",[3]; initial value 398,378
same,Risk of provoking conduction disturbances compared with verapamil,AV conduction; in vivo,substantially lower in the case of A than for verapamil
same,Therapeutic index compared with verapamil,AV conduction; in vivo,substantially greater therapeutic index than verapamil
same,Effect on AV conduction,"AV conduction; in vivo, iv, 0.4 mg/kg",no adverse effect at all on the AV conduction
same,Duration of action,[4],long duration of action
same,Oral availability,[4]; po,great oral availability
same,Effect on number of animals surviving hypoxia after 3 minutes,cerebral hypoxia,increase the number of experimental animals which survive after 3 minutes
same,ED50,"cerebral hypoxia; Mus musculus, po, 1 h, mouse, 1 hour after oral administration, read-out: ED 50% (dose at which 50% of the animals survived oxygen-deficient ventilation for 3 minutes)",88 mg/kg
same,Protective action against cerebral hypoxia compared with verapamil,cerebral hypoxia; mouse,"superior protective action, compared with verapamil"
"CC(C)C(C#N)(CCCN(C)CCc1ccccc1)c1ccccc1 (single isomer, unassigned; (+)) [(+) A, (+)-1,7-Diphenyl-3-methylaza-7-cyano-8-methylnonane]",Efficacy relative to the racemate,[2]; [16],about one fourth of the efficacy of the racemate
same,ED 50% (pretreatment dose which increases the ATP level by 50% compared with the hypoxic control group),[2]; [16],50.3 mg/kg
same,Relative activity,[2]; [16],0.27
same,ED 50% (dose at which 50% of the animals survived oxygen-deficient ventilation for 3 minutes),cerebral hypoxia; [17],100 mg/kg
"CC(C)C(C#N)(CCCN(C)CCc1ccccc1)c1ccccc1 (single isomer, unassigned; (-)) [(-) A, (-)-1,7-Diphenyl-3-methylaza-7-cyano-8-methylnonane]",Effective dose compared with that of the antipode,[2]; [16],substantially lower than that of the dextrorotatory antipode
same,Efficacy relative to the racemate,[2]; [16],about twice as effective as the racemate
same,ED 50% (pretreatment dose which increases the ATP level by 50% compared with the hypoxic control group),[2]; [16],6.6 mg/kg
same,Relative activity,[2]; [16],2.06
same,Effect on number of animals surviving hypoxia after 3 minutes,cerebral hypoxia,increase the number of experimental animals which survive after 3 minutes
same,ED 50% (dose at which 50% of the animals survived oxygen-deficient ventilation for 3 minutes),cerebral hypoxia; [17],48 mg/kg
"COc1ccc(CCN(C)CCCC(C#N)(c2ccc(OC)c(OC)c2)C(C)C)cc1OC (centres unmarked) [verapamil, reference compound]",Myocardial contractility (maximum systolic rate of increase in pressure in the left ventricle),[5],reduction in the myocardial contractility
same,PQ interval,[5],pronounced increase in the PQ interval
same,Percentage difference in the amount of ATP,[2]; [11],0%
same,Percentage difference in the amount of CP,[2]; [11],-9%
same,Percentage difference in the amount of Glycogen,[2]; [11],9%
same,Percentage difference in the amount of ATP,[2]; [18],9%
same,Percentage difference in the amount of CP,[2]; [18],9%
same,Percentage difference in the amount of Glycogen,[2]; [18],-5%
same,Percentage difference in the amount of ATP,[2]; [19],20%
same,Percentage difference in the amount of CP,[2]; [19],21%
same,Percentage difference in the amount of Glycogen,[2]; [19],2%
same,"Protective action against the hypoxia-induced reduction in myocardial CP, ATP and glycogen","[2]; same dose as A or up to 4 times higher, 6 hours after oral administration",no significant protective action
same,AV block,AV conduction; 0.4 mg/kg intravenously,causes second degree AV blocks in all experimental animals
same,PQ interval,AV conduction; 0.4 mg/kg intravenously,greatly prolongs the PQ interval
same,Effect on number of animals surviving hypoxia after 3 minutes,cerebral hypoxia,ineffective
same,Survival of pretreated animals,cerebral hypoxia; after 3 minutes of hypoxia,dead after 3 minutes
same,Known effects on the heart and the circulation,[6],reduction in blood pressure and inhibition of AV conduction
